How the values were obtained:
[1] = target: T1, ABL1(H396P)-phosphorylated (Homo sapiens, UniProt P00519, H396P); experiment: KinomeScan; type: binding; details: 1uM
T1 construct: purchased DiscoveRx KINOMEscan

[2] = target: T2, AKT1 (Homo sapiens, UniProt P31749); experiment: KinomeScan; type: binding; details: 1uM
T2 construct: purchased DiscoveRx KINOMEscan

[3] = target: T3, ALK (Homo sapiens, UniProt Q9UM73); experiment: KinomeScan; type: binding; details: 1uM
T3 construct: purchased DiscoveRx KINOMEscan

[4] = target: T4, BRAF (Homo sapiens, UniProt P15056); experiment: KinomeScan; type: binding; details: 1uM
T4 construct: purchased DiscoveRx KINOMEscan

[5] = target: T5, BRSK1 (Homo sapiens, UniProt Q8TDC3); experiment: KinomeScan; type: binding; details: 1uM
T5 construct: purchased DiscoveRx KINOMEscan

[6] = target: T6, CAMK2D (Homo sapiens, UniProt Q13557); experiment: KinomeScan; type: binding; details: 1uM
T6 construct: purchased DiscoveRx KINOMEscan

[7] = target: T7, CAMK2G (Homo sapiens, UniProt Q13555); experiment: KinomeScan; type: binding; details: 1uM
T7 construct: purchased DiscoveRx KINOMEscan

[8] = target: T8, CDC2L5 (Homo sapiens, UniProt Q14004); experiment: KinomeScan; type: binding; details: 1uM
T8 construct: purchased DiscoveRx KINOMEscan

[9] = target: T9, CDK3 (Homo sapiens, UniProt Q00526); experiment: KinomeScan; type: binding; details: 1uM
T9 construct: purchased DiscoveRx KINOMEscan
T9 sequence (Q00526 whole entry): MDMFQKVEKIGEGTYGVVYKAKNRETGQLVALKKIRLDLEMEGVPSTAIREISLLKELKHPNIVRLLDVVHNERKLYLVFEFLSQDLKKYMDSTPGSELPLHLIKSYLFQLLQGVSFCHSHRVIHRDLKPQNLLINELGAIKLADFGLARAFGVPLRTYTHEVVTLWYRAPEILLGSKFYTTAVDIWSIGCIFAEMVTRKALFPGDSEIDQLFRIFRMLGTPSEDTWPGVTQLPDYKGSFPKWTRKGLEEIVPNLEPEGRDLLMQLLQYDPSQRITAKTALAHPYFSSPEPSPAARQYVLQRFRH

[10] = target: T10, CDK9 (Homo sapiens, UniProt P50750); experiment: KinomeScan; type: binding; details: 1uM
T10 construct: purchased DiscoveRx KINOMEscan

[11] = target: T11, CLK1 (Homo sapiens, UniProt P49759); experiment: KinomeScan; type: binding; details: 1uM
T11 construct: purchased DiscoveRx KINOMEscan

[12] = target: T12, CSNK1D (Homo sapiens, UniProt P48730); experiment: KinomeScan; type: binding; details: 1uM
T12 construct: purchased DiscoveRx KINOMEscan
T12 sequence (P48730 whole entry): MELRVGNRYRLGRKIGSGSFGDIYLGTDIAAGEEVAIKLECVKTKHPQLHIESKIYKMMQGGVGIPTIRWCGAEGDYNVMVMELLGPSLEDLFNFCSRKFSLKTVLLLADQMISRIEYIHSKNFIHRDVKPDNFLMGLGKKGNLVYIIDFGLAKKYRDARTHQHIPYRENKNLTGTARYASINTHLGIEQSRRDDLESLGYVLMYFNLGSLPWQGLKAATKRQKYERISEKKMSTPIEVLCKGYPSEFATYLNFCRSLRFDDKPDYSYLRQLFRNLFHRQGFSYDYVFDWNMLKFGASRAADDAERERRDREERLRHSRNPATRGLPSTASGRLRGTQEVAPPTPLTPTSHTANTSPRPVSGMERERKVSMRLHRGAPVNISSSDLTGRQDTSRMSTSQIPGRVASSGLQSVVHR

[13] = target: T13, CSNK2A1 (Homo sapiens, UniProt P68400); experiment: KinomeScan; type: binding; details: 1uM
T13 construct: purchased DiscoveRx KINOMEscan

[14] = target: T14, DDR2 (Homo sapiens, UniProt Q16832); experiment: KinomeScan; type: binding; details: 1uM
T14 construct: purchased DiscoveRx KINOMEscan
T14 sequence (Q16832 22-855): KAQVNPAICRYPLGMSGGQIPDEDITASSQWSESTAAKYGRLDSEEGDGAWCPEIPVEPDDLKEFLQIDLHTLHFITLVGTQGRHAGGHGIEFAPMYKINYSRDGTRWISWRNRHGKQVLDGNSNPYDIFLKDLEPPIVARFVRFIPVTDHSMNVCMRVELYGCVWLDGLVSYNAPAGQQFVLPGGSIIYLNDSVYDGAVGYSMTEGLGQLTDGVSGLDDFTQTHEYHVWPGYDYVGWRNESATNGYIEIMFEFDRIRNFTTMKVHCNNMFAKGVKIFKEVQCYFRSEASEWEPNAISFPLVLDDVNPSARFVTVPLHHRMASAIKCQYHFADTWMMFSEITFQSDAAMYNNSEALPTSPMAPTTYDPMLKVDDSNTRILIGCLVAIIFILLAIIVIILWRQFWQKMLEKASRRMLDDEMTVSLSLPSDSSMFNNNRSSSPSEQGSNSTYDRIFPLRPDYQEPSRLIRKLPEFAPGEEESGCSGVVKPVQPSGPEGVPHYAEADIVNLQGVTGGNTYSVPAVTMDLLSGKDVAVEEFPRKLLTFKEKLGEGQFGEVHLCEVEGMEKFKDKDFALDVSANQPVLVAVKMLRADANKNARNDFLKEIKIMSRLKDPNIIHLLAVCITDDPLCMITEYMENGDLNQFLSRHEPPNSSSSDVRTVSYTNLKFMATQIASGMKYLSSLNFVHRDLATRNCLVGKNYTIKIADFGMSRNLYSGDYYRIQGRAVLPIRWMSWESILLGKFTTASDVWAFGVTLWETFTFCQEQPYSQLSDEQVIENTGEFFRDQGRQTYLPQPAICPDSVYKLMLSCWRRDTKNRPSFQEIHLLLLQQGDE

[15] = target: T15, DRAK2 (Homo sapiens, UniProt O94768); experiment: KinomeScan; type: binding; details: 1uM
T15 construct: purchased DiscoveRx KINOMEscan

[16] = target: T16, EGFR(L858R) (Homo sapiens, UniProt P00533, L858R); experiment: KinomeScan; type: binding; details: 1uM
T16 construct: purchased DiscoveRx KINOMEscan

[17] = target: T17, EIF2AK1 (Homo sapiens, UniProt Q9BQI3); experiment: KinomeScan; type: binding; details: 1uM
T17 construct: purchased DiscoveRx KINOMEscan

[18] = target: T18, ERBB3 (Homo sapiens, UniProt P21860); experiment: KinomeScan; type: binding; details: 1uM
T18 construct: purchased DiscoveRx KINOMEscan

[19] = target: T19, ERN1 (Homo sapiens, UniProt O75460); experiment: KinomeScan; type: binding; details: 1uM
T19 construct: purchased DiscoveRx KINOMEscan

[20] = target: T20, FLT1 (Homo sapiens, UniProt P17948); experiment: KinomeScan; type: binding; details: 1uM
T20 construct: purchased DiscoveRx KINOMEscan

[21] = target: T21, IGF1R (Homo sapiens, UniProt P08069); experiment: KinomeScan; type: binding; details: 1uM
T21 construct: purchased DiscoveRx KINOMEscan

[22] = target: T22, JNK1 (Homo sapiens, UniProt P45983); experiment: KinomeScan; type: binding; details: 1uM
T22 construct: purchased DiscoveRx KINOMEscan

[23] = target: T23, KIT-autoinhibited (Homo sapiens, UniProt P10721); experiment: KinomeScan; type: binding; details: 1uM
T23 construct: purchased DiscoveRx KINOMEscan
T23 sequence (P10721 26-976): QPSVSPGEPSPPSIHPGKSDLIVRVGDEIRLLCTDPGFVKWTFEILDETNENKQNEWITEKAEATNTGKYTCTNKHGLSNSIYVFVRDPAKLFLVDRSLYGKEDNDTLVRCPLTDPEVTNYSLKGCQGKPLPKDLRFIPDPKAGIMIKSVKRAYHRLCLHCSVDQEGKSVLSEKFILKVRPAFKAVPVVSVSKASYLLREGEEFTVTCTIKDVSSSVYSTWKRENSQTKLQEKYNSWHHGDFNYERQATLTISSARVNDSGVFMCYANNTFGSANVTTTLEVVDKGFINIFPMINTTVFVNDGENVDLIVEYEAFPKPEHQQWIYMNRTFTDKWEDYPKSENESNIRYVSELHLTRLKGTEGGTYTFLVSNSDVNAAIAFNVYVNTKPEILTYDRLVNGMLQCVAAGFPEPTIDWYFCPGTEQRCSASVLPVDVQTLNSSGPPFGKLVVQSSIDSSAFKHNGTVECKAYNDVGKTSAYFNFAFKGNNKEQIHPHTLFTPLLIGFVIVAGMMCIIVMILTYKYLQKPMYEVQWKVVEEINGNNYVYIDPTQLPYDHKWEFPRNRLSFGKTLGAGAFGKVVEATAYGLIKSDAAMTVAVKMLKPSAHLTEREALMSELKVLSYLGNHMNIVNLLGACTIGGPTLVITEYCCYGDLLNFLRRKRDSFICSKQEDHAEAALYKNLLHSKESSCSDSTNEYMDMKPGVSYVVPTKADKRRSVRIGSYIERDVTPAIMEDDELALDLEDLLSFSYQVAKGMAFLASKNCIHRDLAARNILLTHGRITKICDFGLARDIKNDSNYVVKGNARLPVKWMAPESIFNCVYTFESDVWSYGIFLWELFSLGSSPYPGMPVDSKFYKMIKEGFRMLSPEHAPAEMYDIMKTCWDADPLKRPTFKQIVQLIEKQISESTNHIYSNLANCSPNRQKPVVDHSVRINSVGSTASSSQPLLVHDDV

[24] = target: T24, LYN (Homo sapiens, UniProt P07948); experiment: KinomeScan; type: binding; details: 1uM
T24 construct: purchased DiscoveRx KINOMEscan

[25] = target: T25, MAP3K4 (Homo sapiens, UniProt Q9Y6R4); experiment: KinomeScan; type: binding; details: 1uM
T25 construct: purchased DiscoveRx KINOMEscan

[26] = target: T26, MARK1 (Homo sapiens, UniProt Q9P0L2); experiment: KinomeScan; type: binding; details: 1uM
T26 construct: purchased DiscoveRx KINOMEscan

[27] = target: T27, MST1 (Homo sapiens, UniProt Q13043); experiment: KinomeScan; type: binding; details: 1uM
T27 construct: purchased DiscoveRx KINOMEscan

[28] = target: T28, MYO3A (Homo sapiens, UniProt Q8NEV4); experiment: KinomeScan; type: binding; details: 1uM
T28 construct: purchased DiscoveRx KINOMEscan

[29] = target: T29, NEK9 (Homo sapiens, UniProt Q8TD19); experiment: KinomeScan; type: binding; details: 1uM
T29 construct: purchased DiscoveRx KINOMEscan

[30] = target: T30, p38-delta (Homo sapiens, UniProt O15264); experiment: KinomeScan; type: binding; details: 1uM
T30 construct: purchased DiscoveRx KINOMEscan

[31] = target: T31, PIK3CA(E545A) (Homo sapiens, UniProt P42336, E545A); experiment: KinomeScan; type: binding; details: 1uM
T31 construct: purchased DiscoveRx KINOMEscan
T31 sequence (P42336 whole entry E545A): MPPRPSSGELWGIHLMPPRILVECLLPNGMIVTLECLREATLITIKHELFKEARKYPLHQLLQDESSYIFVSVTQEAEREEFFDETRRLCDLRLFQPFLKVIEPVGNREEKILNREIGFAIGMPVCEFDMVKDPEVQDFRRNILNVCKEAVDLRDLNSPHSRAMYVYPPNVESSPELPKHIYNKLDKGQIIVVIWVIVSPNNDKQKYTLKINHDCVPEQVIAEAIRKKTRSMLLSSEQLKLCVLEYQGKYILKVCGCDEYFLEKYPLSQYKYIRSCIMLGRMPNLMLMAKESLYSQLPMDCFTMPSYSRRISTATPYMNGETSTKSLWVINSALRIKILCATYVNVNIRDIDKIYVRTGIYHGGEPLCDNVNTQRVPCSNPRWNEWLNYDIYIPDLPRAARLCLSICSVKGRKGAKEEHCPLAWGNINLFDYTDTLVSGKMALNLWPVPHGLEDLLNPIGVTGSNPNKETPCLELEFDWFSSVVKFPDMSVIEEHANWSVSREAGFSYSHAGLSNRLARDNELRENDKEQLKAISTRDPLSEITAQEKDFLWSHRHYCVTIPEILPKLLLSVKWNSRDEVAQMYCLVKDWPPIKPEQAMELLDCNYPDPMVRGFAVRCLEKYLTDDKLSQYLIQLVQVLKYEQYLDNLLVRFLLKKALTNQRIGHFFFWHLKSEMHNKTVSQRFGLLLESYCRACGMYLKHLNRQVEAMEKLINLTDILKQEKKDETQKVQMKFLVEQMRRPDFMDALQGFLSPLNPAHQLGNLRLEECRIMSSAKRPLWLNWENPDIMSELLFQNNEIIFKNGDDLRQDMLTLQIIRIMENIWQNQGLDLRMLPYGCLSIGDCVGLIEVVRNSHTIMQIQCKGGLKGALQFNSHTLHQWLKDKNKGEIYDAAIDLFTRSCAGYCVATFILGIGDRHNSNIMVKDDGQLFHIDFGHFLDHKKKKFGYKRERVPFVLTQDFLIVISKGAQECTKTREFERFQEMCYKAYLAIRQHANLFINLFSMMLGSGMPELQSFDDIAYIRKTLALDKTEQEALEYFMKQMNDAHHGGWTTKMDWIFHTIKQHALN

[32] = target: T32, PIK4CB (Homo sapiens, UniProt Q9UBF8); experiment: KinomeScan; type: binding; details: 1uM
T32 construct: purchased DiscoveRx KINOMEscan

[33] = target: T33, PIM1 (Homo sapiens, UniProt P11309); experiment: KinomeScan; type: binding; details: 1uM
T33 construct: purchased DiscoveRx KINOMEscan
T33 sequence (P11309 whole entry): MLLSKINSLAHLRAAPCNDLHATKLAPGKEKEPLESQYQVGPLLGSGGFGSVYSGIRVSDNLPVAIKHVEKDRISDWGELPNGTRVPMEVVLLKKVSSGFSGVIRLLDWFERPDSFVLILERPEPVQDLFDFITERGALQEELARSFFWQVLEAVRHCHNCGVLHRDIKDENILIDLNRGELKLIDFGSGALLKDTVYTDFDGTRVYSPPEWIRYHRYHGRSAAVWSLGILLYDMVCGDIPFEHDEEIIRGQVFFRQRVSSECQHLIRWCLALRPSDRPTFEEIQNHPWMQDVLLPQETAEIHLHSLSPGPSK

[34] = target: T34, PIP5K2C (Homo sapiens, UniProt Q8TBX8); experiment: KinomeScan; type: binding; details: 1uM
T34 construct: purchased DiscoveRx KINOMEscan

[35] = target: T35, PKN2 (Homo sapiens, UniProt Q16513); experiment: KinomeScan; type: binding; details: 1uM
T35 construct: purchased DiscoveRx KINOMEscan

[36] = target: T36, PRKCH (Homo sapiens, UniProt P24723); experiment: KinomeScan; type: binding; details: 1uM
T36 construct: purchased DiscoveRx KINOMEscan

[37] = target: T37, PRKG1 (Homo sapiens, UniProt Q13976); experiment: KinomeScan; type: binding; details: 1uM
T37 construct: purchased DiscoveRx KINOMEscan

[38] = target: RPS6KA4(Kin.Dom.2-C-terminal) (Homo sapiens, UniProt O75676); experiment: KinomeScan; type: binding; details: 1uM
Sequence of RPS6KA4(Kin.Dom.2-C-terminal) (O75676 372-772 limits assumed): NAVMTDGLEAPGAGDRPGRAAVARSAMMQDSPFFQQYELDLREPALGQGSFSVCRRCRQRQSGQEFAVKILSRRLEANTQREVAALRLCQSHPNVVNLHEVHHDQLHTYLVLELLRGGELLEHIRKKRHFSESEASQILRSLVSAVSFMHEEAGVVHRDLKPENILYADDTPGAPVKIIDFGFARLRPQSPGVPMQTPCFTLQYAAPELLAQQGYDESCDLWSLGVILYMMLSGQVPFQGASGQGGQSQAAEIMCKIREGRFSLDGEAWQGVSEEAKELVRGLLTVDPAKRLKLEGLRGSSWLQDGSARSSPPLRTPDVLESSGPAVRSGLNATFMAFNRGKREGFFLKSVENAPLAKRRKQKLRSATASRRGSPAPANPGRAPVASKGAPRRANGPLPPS

[39] = target: T38, RSK2(Kin.Dom.2-C-terminal) (Homo sapiens, UniProt P51812); experiment: KinomeScan; type: binding; details: 1uM
T38 construct: RSK2(Kin.Dom.2-C-terminal); purchased DiscoveRx KINOMEscan

[40] = target: T39, SGK (Homo sapiens, UniProt O00141); experiment: KinomeScan; type: binding; details: 1uM
T39 construct: purchased DiscoveRx KINOMEscan

[41] = target: T40, TGFBR1 (Homo sapiens, UniProt P36897); experiment: KinomeScan; type: binding; details: 1uM
T40 construct: purchased DiscoveRx KINOMEscan
T40 sequence (P36897 34-503): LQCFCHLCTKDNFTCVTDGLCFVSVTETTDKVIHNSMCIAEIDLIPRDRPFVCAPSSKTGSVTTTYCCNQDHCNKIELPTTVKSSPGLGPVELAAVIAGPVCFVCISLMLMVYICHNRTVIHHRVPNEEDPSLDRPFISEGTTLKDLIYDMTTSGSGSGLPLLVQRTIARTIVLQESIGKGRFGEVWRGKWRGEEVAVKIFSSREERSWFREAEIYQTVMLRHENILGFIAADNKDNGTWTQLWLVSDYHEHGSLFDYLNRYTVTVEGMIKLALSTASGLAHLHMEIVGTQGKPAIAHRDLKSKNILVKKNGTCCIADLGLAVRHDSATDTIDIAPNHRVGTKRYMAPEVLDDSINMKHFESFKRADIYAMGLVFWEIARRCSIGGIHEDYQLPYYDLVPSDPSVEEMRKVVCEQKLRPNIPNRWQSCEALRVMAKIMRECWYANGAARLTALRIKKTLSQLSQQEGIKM

[42] = target: T41, ULK1 (Homo sapiens, UniProt O75385); experiment: KinomeScan; type: binding; details: 1uM
T41 construct: purchased DiscoveRx KINOMEscan

[43] = test system: LC3B II; experiment: Autophagy (western-blot); type: cell-based, human; details: 12 hours
Source text: Cells were then washed in PBS and lysed in cell lysis buffer and detected by western-blot using LC3B, GAPDH antibody (Cell signaling Technology).

Cc1nc(NC(=O)[C@@H](N)C(C)C)sc1-c1cnc(Cl)c(NS(=O)(=O)c2ccccc2)c1 [PI3KD-IN-015]
KinomeScan ABL1(H396P)-phosphorylated [1]: 78
KinomeScan AKT1 [2]: 91
KinomeScan ALK [3]: 100
KinomeScan BRAF [4]: 93
KinomeScan BRSK1 [5]: 100
KinomeScan CAMK2D [6]: 95
KinomeScan CAMK2G [7]: 100
KinomeScan CDC2L5 [8]: 92
KinomeScan CDK3 [9]: 100
KinomeScan CDK9 [10]: 100
KinomeScan CLK1 [11]: 100
KinomeScan CSNK1D [12]: 79
KinomeScan CSNK2A1 [13]: 100
KinomeScan DDR2 [14]: 96
KinomeScan DRAK2 [15]: 70
KinomeScan EGFR(L858R) [16]: 100
KinomeScan EIF2AK1 [17]: 100
KinomeScan ERBB3 [18]: 100
KinomeScan ERN1 [19]: 92
KinomeScan FLT1 [20]: 89
KinomeScan IGF1R [21]: 100
KinomeScan JNK1 [22]: 100
KinomeScan KIT-autoinhibited [23]: 100
KinomeScan LYN [24]: 100
KinomeScan MAP3K4 [25]: 100
KinomeScan MARK1 [26]: 100
KinomeScan MST1 [27]: 83
KinomeScan MYO3A [28]: 94
KinomeScan NEK9 [29]: 100
KinomeScan p38-delta [30]: 98
KinomeScan PIK3CA(E545A) [31]: 5.2
KinomeScan PIK4CB [32]: 0.8
KinomeScan PIM1 [33]: 100
KinomeScan PIP5K2C [34]: 90
KinomeScan PKN2 [35]: 100
KinomeScan PRKCH [36]: 100
KinomeScan PRKG1 [37]: 89
KinomeScan RPS6KA4(Kin.Dom.2-C-terminal) [38]: 83
KinomeScan RSK2(Kin.Dom.2-C-terminal) [39]: 100
KinomeScan SGK [40]: 70
KinomeScan TGFBR1 [41]: 97
KinomeScan ULK1 [42]: 74
autophagy induction (LC3B II) ([43]; HT cells and MEC-1 cells): significantly increased the production of LC3B II
autophagy induction ([43]; MOLM-13 cell): no apparent autophagy induction

Reference: article PMC5078040 (Oncotarget, 2016)
